Values quoted from earlier work as cited in patent publication EP3251687A1, “BIOACTIVE PEPTIDES FOR BLOOD GLUCOSE CONTROL” (Centrum Innowacji Edoradca Sp. z o.o. Spolka Komandytowa, priority 2016, dated 2017).

System: carboxypeptidases A, B

For enterostatin, the “resistance to digestion by carboxypeptidases A, B” value is listed as “resistant to digestion by carboxypeptidases A, B”.
